# Data published in ChEMBL document CHEMBL5113373, “Tryptophan derived natural marine alkaloids and synthetic derivatives as promising antimicrobial agents” (Eur J Med Chem, 2021).
# pEC50, pIC50: −log10 of the molar value.
# What was measured:
# Candida albicans [1] = assay: Antifungal activity against Candida albicans assessed as fungal growth inhibition; format: functional, organism-based
# Escherichia coli [2] = assay: Antimicrobial activity against Escherichia coli assessed as microbial growth inhibition by microdilution method; format: functional
# Staphylococcus aureus [3] = assay: Antimicrobial activity against methicillin-resistant Staphylococcus aureus assessed as microbial growth inhibition by broth microdilution method; format: functional
# Candida albicans [4] = assay: Antimicrobial activity against Candida albicans assessed as microbial growth inhibition by microdilution method; format: functional
# Hepatitis C virus = assay: Antiviral activity against HCV J8CC infected in human Huh7.5 cells assessed as viral growth inhibition incubated for 48 hrs by light microscopy; format: functional, organism-based, Hepacivirus hominis; conditions: Huh7.5, 48 h
# [5] = test system: Trichophyton mentagrophytes; assay: Antifungal activity against Trichophyton mentagrophytes assessed as fungal growth inhibition; format: functional, organism-based
# Cryptococcus neoformans = assay: Antifungal activity against Cryptococcus neoformans assessed as fungal growth inhibition; format: functional, organism-based
# Candida albicans [6] = assay: Antimicrobial activity against Candida albicans assessed as microbial growth inhibition measured after 24 hrs by agar dilution method; format: functional
# Aspergillus niger = assay: Antifungal activity against Aspergillus niger assessed as fungal growth inhibition; format: functional, organism-based
# Vibrio natriegens [7] = assay: Antimicrobial activity against Vibrio natriegens ATCC 14048 assessed as inhibition of bacterial adhesion incubated for 48 hrs by crystal staining method; format: functional
# Vibrio natriegens [8] = assay: Antimicrobial activity against Vibrio natriegens ATCC 14048 assessed as microbial growth inhibition incubated for 48 hrs by spectrophotometry; format: functional
# Staphylococcus aureus [9] = assay: Antibiofilm activity against Staphylococcus aureus ATCC 6538 assessed as inhibition of biofilm formation incubated for 24 hrs by crystal violet method; format: functional, organism-based; conditions: ATCC 6538, 24 h
# [10] = test system: Mycobacterium tuberculosis; assay: Antibacterial activity against […] assessed as bacterial growth inhibition; format: functional
# [11] = Inhibition of Methicillin-resistant Staphylococcus aureus pyruvate kinase assessed as measuring absorbance of NADH coupled to L-LDH using phospho enol pyruvate in presence of ADP by spectrophotometry
# Mycolicibacterium phlei = assay: Antibacterial activity against Mycobacterium phlei assessed as bacterial growth inhibition; format: functional, organism-based
# Micrococcus luteus = assay: Antibacterial activity against Micrococcus luteus assessed as bacterial growth inhibition; format: functional, organism-based
# Staphylococcus aureus [12] = assay: Antibacterial activity against Staphylococcus aureus assessed as bacterial growth inhibition; format: functional, organism-based
# Bacillus subtilis = assay: Antibacterial activity against Bacillus subtilis assessed as bacterial growth inhibition; format: functional, organism-based
# Staphylococcus aureus [13] = assay: Antimicrobial activity against Staphylococcus aureus ATCC 25923 assessed as zone of inhibition incubated for 24 hrs by disc diffusion method; format: functional
# Candida albicans [14] = assay: Antimicrobial activity against Candida albicans ATCC 14053 assessed as zone of inhibition incubated for 24 hrs by disc diffusion method; format: functional
# Pseudomonas aeruginosa = assay: Antibacterial activity against Pseudomonas aeruginosa ATCC 9027 assessed as bacterial growth inhibition incubated for 24 hrs by agar diffusion method; format: functional
# Staphylococcus aureus [15] = assay: Antibacterial activity against Staphylococcus aureus ATCC 6538 assessed as bacterial growth inhibition incubated for 24 hrs by agar diffusion method; format: functional
# Candida albicans [16] = assay: Antifungal activity against Candida albicans ATCC 2091 assessed as fungal growth inhibition incubated for 24 hrs by agar diffusion method; format: functional
# Staphylococcus aureus [17] = assay: Antibiofilm activity against Staphylococcus aureus ATCC 29213 assessed as inhibition of biofilm formation incubated for 24 hrs by crystal violet method; format: functional, organism-based; conditions: ATCC 29213, 24 h
# Escherichia coli [18] = assay: Antibiofilm activity against Escherichia coli K12 ER2718 assessed as inhibition of biofilm formation incubated for 24 hrs by crystal violet method; format: functional, organism-based; conditions: K12 ER2718, 24 h
# Saccharomyces cerevisiae = assay: Antifungal activity against Saccharomyces cerevisiae assessed as fungal growth inhibition; format: functional, organism-based
# Acinetobacter baumannii = assay: Antibiofilm activity against Acinetobacter baumannii ATCC 19606 assessed as inhibition of biofilm formation at 100 uM incubated for 24 hrs by crystal violet method relative to control; format: functional; design: scale not given: the % may be the effect or the level left
# Escherichia coli [19] = assay: Antibacterial activity against Escherichia coli assessed as bacterial growth inhibition; format: functional
smiles,measurement,setting,value
CC(C)CC(=O)Nc1c(O)c(C(C[N+](C)(C)C)c2c[nH]c3cc(Br)ccc23)c2ccnc3c2c1NC=C3 (stereo unspecified),pIC50,Candida albicans [1],4.85
Cc1cncc(Cc2c[nH]c3ccccc23)n1,MIC,Escherichia coli [2],35.8 µM
same,MIC,Staphylococcus aureus [3],53.7 µM
same,MIC,Candida albicans [4],62.7 µM
CC(C)[C@@H]1NC(=O)[C@@H](C[C@@]2(O)c3ccccc3N3C(=O)C(C)(C)N[C@@H]32)n2c1nc1ccccc1c2=O,pEC50,Hepatitis C virus,3.89
CSc1c(-c2c(-c3c[nH]c4ccc(O)cc34)c(=O)n3c4ccc(O)cc4c4ccnc2c43)[n+](C)cn1C,MIC,[5],31.5 µM
same,pIC50,Candida albicans [1],5.10
same,pIC50,Cryptococcus neoformans,5.10
O=C1N[C@H]2c3nc4ccccc4c(=O)n3[C@H]1C[C@@]1(O)c3ccccc3N3C(=O)C4(CC4)N2[C@@H]31,MIC,Candida albicans [6],22.6 µM
O=C1NC(C(=O)c2c[nH]c3ccc(O)cc23)c2c(O)ccc3[nH]cc(c23)C1=O (stereo unspecified),pIC50,[5],4.37
same,pIC50,Aspergillus niger,4.67
CSc1c(-c2c(-c3c[nH]c4ccc(O)cc34)c(=O)n3c4ccc(O)cc4c4cc(C(=O)O)nc2c43)[n+](C)cn1C,pIC50,Candida albicans [1],4.84
same,pIC50,Cryptococcus neoformans,4.84
C[N+](C)(C)CC(c1c[nH]c2ccccc12)c1c(O)c(O)c2c3c(nccc13)C=CN2 (stereo unspecified),pIC50,Candida albicans [1],4.70
C/N=C1\NC(Cc2c[nH]c3cc(Br)ccc23)C(=O)N1C (stereo unspecified),MIC,Vibrio natriegens [7],298 µM
same,MIC,Vibrio natriegens [8],0.03 µM
COCCn1cc(-c2nc(-c3c[nH]c4ccccc34)cs2)c2cc(F)ccc21,pIC50,Staphylococcus aureus [9],6.15
C=CC(C)(C)c1[nH]c2ccccc2c1/C=c1\[nH]c(=O)c2n(c1=O)CCC=2C1=c2c(=O)[nH]/c(=C\c3c(C(C)(C)C=C)[nH]c4ccccc34)c(=O)n2CC1,MIC,[10],9 µM
"O=C1NC[C@@H](c2c[nH]c3cc(Br)ccc23)N[C@H]1c1c[nH]c2cc(Br)ccc12 (relative stereo) [CIS-3,4-DIHYDROHAMACANTHIN B]",MIC,Staphylococcus aureus [3],0.016 µM
same,pIC50,[11],5.29
C=CC(C)(C)c1c(CCNC)c2ccccc2n1CC=C(C)C,pIC50,Mycolicibacterium phlei,5.11
same,pIC50,Micrococcus luteus,4.65
C[N+](C)(C)CC(c1c[nH]c2cc(Br)ccc12)c1c(O)c(O)c2c3c(nccc13)C=CN2 (stereo unspecified),pIC50,[5],6.30
same,pIC50,Candida albicans [1],6.30
same,pIC50,Micrococcus luteus,5.38
same,pIC50,Staphylococcus aureus [12],5.38
same,pIC50,Bacillus subtilis,5.38
same,pIC50,Cryptococcus neoformans,6.30
CC(=O)[C@H]1N=C(c2c[nH]c3ccc(O)cc23)c2c(O)ccc3[nH]cc(c23)[C@H]1O,pIC50,Aspergillus niger,4.07
O=C1N[C@@H](Cc2c[nH]c3ccccc23)C(=O)N2CCC[C@@H]12 [BREVIANAMIDE F],diameter of the inhibition zone (DIZ),Staphylococcus aureus [13],19 mm
same,MIC,[10],44.1 µM
same,diameter of the inhibition zone (DIZ),Candida albicans [14],25 mm
Cn1cc(C(=O)c2nc(C(=O)O)cc3c2[nH]c2ccc(O)cc23)[n+](C)c1,pIC50,[5],4.34
same,pIC50,Candida albicans [1],4.34
same,pIC50,Aspergillus niger,4.64
same,pIC50,Cryptococcus neoformans,4.94
NC(=O)c1c(-c2c[nH]c3cc(O)ccc23)ncc2[nH]c3ccc(O)cc3c12,diameter of the inhibition zone (DIZ),Pseudomonas aeruginosa,7 mm
same,diameter of the inhibition zone (DIZ),Staphylococcus aureus [15],10 mm
same,diameter of the inhibition zone (DIZ),Candida albicans [16],9 mm
C=CC(C)(C)c1[nH]c2cc(Br)ccc2c1CCNC [DESFORMYLFLUSTRABROMINE],pIC50,Staphylococcus aureus [17],4.15
same,pIC50,Escherichia coli [18],3.76
Brc1ccc2c(-c3c[nH]c(-c4c[nH]c5ccccc45)n3)c[nH]c2c1 [NORTOPSENTIN C],pIC50,Candida albicans [1],5.17
C=CC(C)(C)c1c(CCNC)c2ccc(Br)cc2n1CC=C(C)C,pIC50,Mycolicibacterium phlei,5.11
same,pIC50,Micrococcus luteus,5.23
same,pIC50,Saccharomyces cerevisiae,4.75
O=C1Nc2ccccc2[C@@]1(O)Cc1cncc(Cc2c[nH]c3ccccc23)n1,MIC,Escherichia coli [2],27 µM
same,MIC,Staphylococcus aureus [3],32.4 µM
same,MIC,Candida albicans [4],32.4 µM
C=CC(C)(C)[C@@]12CCN(C)C1=Nc1cc(Br)ccc12 [FLUSTRAMINE C],Activity,Acinetobacter baumannii,30%
CO[C@@H]1c2c[nH]c3ccc(O)c(c23)C(c2c[nH]c3ccc(O)cc23)=N[C@@H]1C(C)=O,MIC,Bacillus subtilis,41.1 µM
same,MIC,Escherichia coli [19],41.1 µM
